# Results as given in doi:10.1101/2025.06.30.662286v4 (biorxiv, 2026).
# Where two headings read alike, the source gives them in different places.
# Columns and labels:
# [1] = target: sc-apCC-4-DPH (highest-affinity DPH binder of Fig. 2; sc-apCC-4-DPH-1 or sc-apCC-4-DPH-2); experiment: fluorescence intensity saturation binding; set-up: species or system synthetic construct; conditions: PBS pH 7.4, 10% v/v MeCN, 0.5 μM DPH, 0-60 μM protein
# [2] = target: sc-apCC-6-NR (S, specific binder); experiment: fluorescence saturation binding; set-up: species or system synthetic construct; conditions: PBS pH 7.4, 10% v/v MeCN, 0.5 μM ligand, 0-60 μM protein
# [3] = target: sc-apCC-6-DPH-NR (P, promiscuous binder); experiment: fluorescence saturation binding; set-up: species or system synthetic construct; conditions: PBS pH 7.4, 10% v/v MeCN, 0.5 μM ligand, 0-60 μM protein
# sc-apCC-4-SN38-1 [4] = experiment: fluorescence saturation binding; set-up: species or system synthetic construct
# sc-apCC-4-NR-1 = experiment: fluorescence intensity saturation binding; set-up: species or system synthetic construct; conditions: PBS pH 7.4, 10% v/v MeCN, 0.5 μM Nile red, 0-60 μM protein
# sc-apCC-4-SN38-1 [5] = experiment: fluorescence saturation binding; set-up: species or system synthetic construct; conditions: ABS pH 4, 10% v/v DMSO, 1 μM SN38, 0-480 μM protein
# sc-apCC-4-LMF-1 = conditions: PBS pH 7.4, 10% v/v DMSO, 1 μM lumiflavin, 0-480 μM protein
smiles,measurement,setting,value
"C(=CC=Cc1ccccc1)C=Cc1ccccc1 [DPH, 1,6-diphenyl-1,3,5-hexatriene]",Kd,[1],1200 ± 100 nM
same,Kd,[2],> 20000 nM
same,Kd,[3],1900 ± 200 nM
CCN(CC)c1ccc2nc3c4ccccc4c(=N)cc-3oc2c1 [Nile blue],Kd,"sc-apCC-4-SN38-1 [4]; read-out: KD,Nile blue",~400 nM
CCN(CC)c1ccc2nc3c4ccccc4c(=O)cc-3oc2c1 [Nile red],Kd,sc-apCC-4-NR-1,2400 ± 100 nM
same,Kd,"sc-apCC-4-SN38-1 [4]; read-out: KD,Nile Red",~200 nM
same,Kd,[2],110 ± 40 nM
same,Kd,[3],2200 ± 200 nM
CCc1c2c(nc3ccc(O)cc13)-c1cc3c(c(=O)n1C2)COC(=O)[C@]3(O)CC [SN38],Kd,sc-apCC-4-SN38-1 [5],7800 ± 600 nM
Cc1cc2nc3c(=O)[nH]c(=O)nc-3n(C)c2cc1C [lumiflavin],Kd,sc-apCC-4-LMF-1,> 50000 nM
